The source made the active and inactive calls. The calls are words filed in the database; no cut-off is given here.
Columns and labels:
[1] = target: Programmed cell death protein 1/Programmed cell death 1 ligand 1 (Homo sapiens, UniProt Q15116+Q9NZQ7); experiment: Inhibition of PD-1/PD-L1 (unknown origin) protein-protein interaction incubated for 15 mins by TR-FRET assay; assay type: protein-complex assay
[2] = test system: MDA-MB-231; experiment: (§1) Antitumor immunity against human MDA-MB-231 cells cocultured with CD3/CD28/CD2 T cell activator stimulated human PBMC cells assessed as killing activity cell mortality rate at 0.5 uM pre-treated with compound for 2 hrs followed by addition of CD3/CD28/CD2 T cell activator stimulated human PBMC cells and measured after 12 hrs relative to control; assay type: functional; conditions: time 14 hrs
[3] = test system: Jurkat; experiment: Restoration of PD-L1 mediated IFN-gamma release in anti-CD3/CD28 stimulated human Jurkat cells at 0.5 uM incubated for 24 hrs by ELISA method; assay type: functional, cell-based
[4] = test system: MDA-MB-231; experiment: as §1, with “activity” for “activity cell mortality rate”, “0.25 to 1” for “0.5”, “hrs” for “hrs relative to control”; assay type: functional, cell-based; conditions: dose 0.25-1 µM, time 14.0 hrs
[5] = test system: RKO; experiment: Cytotoxicity against human RKO cells at 8 uM incubated for 24 hrs by CCK-8 method; assay type: functional, cell-based
[6] = test system: Jurkat; experiment: Cytotoxicity against human Jurkat cells at < 8 uM incubated for 24 hrs by CCK-8 method; assay type: functional, cell-based
[7] = test system: MDA-MB-231; experiment: Cytotoxicity against human MDA-MB-231 cells at 8 uM incubated for 24 hrs by CCK-8 method; assay type: functional, cell-based
[8] = test system: PBMC; experiment: Cytotoxicity against human PBMC cells at < 8 uM incubated for 24 hrs by CCK-8 method; assay type: toxicity, cell-based
[9] = test system: MDA-MB-231; experiment: Cytotoxicity against human MDA-MB-231 cells at 1.0 uM incubated for 24 hrs by CCK-8 method; assay type: functional, cell-based
[10] = test system: Jurkat; experiment: Restoration of PD-L1 mediated IFN-gamma release in anti-CD3/CD28 stimulated human Jurkat cells incubated for 24 hrs by ELISA method; assay type: functional, cell-based; conditions: dose 0.25-2 µM

Sequence of Programmed cell death protein 1/Programmed cell death 1 ligand 1 (Q15116 whole entry): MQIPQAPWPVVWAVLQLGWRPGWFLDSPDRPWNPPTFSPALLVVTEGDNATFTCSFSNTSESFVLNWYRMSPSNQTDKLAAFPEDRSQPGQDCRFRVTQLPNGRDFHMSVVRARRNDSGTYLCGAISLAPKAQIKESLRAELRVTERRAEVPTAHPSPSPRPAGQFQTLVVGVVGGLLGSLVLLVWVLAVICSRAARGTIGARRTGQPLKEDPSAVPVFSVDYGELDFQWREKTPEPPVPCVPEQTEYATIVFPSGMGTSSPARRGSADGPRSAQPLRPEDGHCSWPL
Sequence of Programmed cell death protein 1/Programmed cell death 1 ligand 1 (Q9NZQ7 whole entry): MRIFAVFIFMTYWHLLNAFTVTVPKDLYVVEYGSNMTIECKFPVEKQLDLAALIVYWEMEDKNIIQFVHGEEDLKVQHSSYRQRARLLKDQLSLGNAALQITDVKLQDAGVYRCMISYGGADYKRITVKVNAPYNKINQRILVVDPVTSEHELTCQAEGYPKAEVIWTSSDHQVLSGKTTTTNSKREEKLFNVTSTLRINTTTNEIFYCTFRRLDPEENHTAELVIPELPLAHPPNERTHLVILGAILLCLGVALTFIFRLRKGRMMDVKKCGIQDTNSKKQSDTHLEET

| SMILES | IC50 [1] [nM] | also measured |
| --- | --- | --- |
| COCCOc1cccc(-c2cccc3c2CC[C@@H]3Oc2nc(OC)c(CNCCO)cc2Cl)c1 | 94.5 | – |
| COc1nc(O[C@H]2CCc3c(-c4ccc5[nH]ccc5c4)cccc32)c(Cl)cc1CNCCO | > 100 | – |
| COc1nc(O[C@H]2CCCc3c(-c4ccccc4)cccc32)ccc1CNCCNC(C)=O | 47.6 | – |
| COc1nc(O[C@H]2CCc3c(-c4ccc5c(c4)OCCO5)cccc32)c(Cl)cc1CNCC(F)(F)F | 67 | – |
| COc1nc(O[C@H]2CCc3c(-c4ccc5c(c4)OCCO5)cccc32)c(Cl)cc1CNCCC(N)=O | 20.3 | – |
| COc1nc(O[C@H]2CCc3c(-c4ccc5c(c4)OCCO5)cccc32)c(Cl)cc1CN1CC[C@H](O)C1 | 18 | – |
| COc1ccc(-c2cccc3c2CC[C@@H]3Oc2nc(OC)c(CNCCO)cc2Cl)cc1OC | > 100 | – |
| COc1nc(O[C@H]2CCc3c(-c4ccc5ccccc5c4)cccc32)c(Cl)cc1CNCCO | > 100 | – |
| COc1nc(O[C@H]2CCc3c(-c4ccc5c(c4)OCCO5)cccc32)c(Cl)cc1CNC[C@@H](O)CC(=O)O | 14 | – |
| COc1nc(O[C@H]2CCc3c(-c4ccc(F)c(F)c4)cccc32)c(Cl)cc1CNCCO | 55.6 | – |
| COc1nc(O[C@H]2CCc3c(-c4ccc(F)cc4)cccc32)c(Cl)cc1CNCCO | 37.8 | – |
| COc1nc(O[C@H]2CCc3c(-c4ccc5c(c4)OCCO5)cccc32)c(Br)cc1CNCCO | 51 | – |
| COc1nc(OCc2cccc(-c3ccccc3)c2C)ccc1CNCCNC(C)=O | – | mortality at 0.5 µM [2]: 45.1% |
| COc1nc(O[C@H]2CCc3c(-c4ccccc4)cccc32)ccc1CNCCNC(C)=O | 21 | – |
| COc1nc(O[C@H]2CCc3c(-c4ccc5c(c4)OCO5)cccc32)c(Cl)cc1CNCCO | 24.9 | – |
| COc1nc(O[C@H]2CCCc3c(-c4ccccc4)cccc32)ccc1CNCCO | > 100 | – |

| SMILES | IC50 [1] [nM] | also measured |
| --- | --- | --- |
| COc1nc(O[C@@H]2CCc3c(-c4ccccc4)cccc32)ccc1CNCCO | 57.8 | – |
| COc1cccc(-c2cccc3c2CC[C@@H]3Oc2nc(OC)c(CNCCO)cc2Cl)c1 | > 100 | – |
| COc1nc(O[C@H]2CCc3c(-c4ccccc4F)cccc32)c(Cl)cc1CNCCO | 2.2 | Activity [3]: Active; Activity [4]: Active; Activity [5]: Active; Activity [6]: Active; mortality at 0.5 µM [2]: 40.9%; Activity [7]: Active; Activity [8]: Non-Toxic; Activity [9]: inactive; Activity [10]: Dose-Dependent Effect |
| COc1nc(O[C@@H]2CCc3c(-c4ccc5c(c4)OCCO5)cccc32)c(Cl)cc1CN1CC(O)C1 | 19.6 | – |
| COc1nc(O[C@@H]2CCc3c(-c4ccccc4)cccc32)ccc1CNCCNC(C)=O | 84.8 | – |
| COc1nc(O[C@H]2CCc3c(-c4ccc5c(c4)OCCO5)cccc32)c(Cl)cc1CNCCN(C)C | 46.2 | – |
| COc1nc(O[C@H]2CCc3c(-c4ccc5c(c4)OCCO5)cccc32)c(Cl)cc1CNCCNC(C)=O | 16.3 | – |
| COc1nc(O[C@H]2CCc3c(-c4ccc5c(c4)OCCO5)cccc32)c(Cl)cc1CNCCO | 10.2 | – |
| COc1nc(O[C@H]2CCc3c(-c4ccc5c(c4)OCCO5)cccc32)c(Cl)cc1CN1CC[C@H](C(=O)O)C1 | 16.4 | – |
| COc1nc(O[C@H]2CCc3c(-c4ccccc4)cccc32)c(Cl)cc1CNCCO | 7.5 | – |
| COc1nc(O[C@H]2CCc3c(-c4ccc5c(c4)OCCO5)cccc32)c(Cl)cc1CNC[C@@H]1CCC(=O)N1 | 15.7 | – |
| COc1nc(O[C@H]2CCc3c(-c4ccc5c(c4)OCCO5)cccc32)c(Cl)cc1CN1CC[C@@H](O)C1 | 69.4 | – |
| COc1nc(O[C@H]2CCc3c(-c4cccc(F)c4)cccc32)c(Cl)cc1CNCCO | 24.7 | – |
| COc1nc(O[C@H]2CCc3c(-c4ccc5c(c4)OCCO5)cccc32)c(Cl)cc1CNC[C@@H](O)CO | 13.3 | – |
| COCCNCc1cc(Cl)c(O[C@H]2CCc3c(-c4ccc5c(c4)OCCO5)cccc32)nc1OC | 43.1 | – |
| COc1nc(O[C@H]2CCc3c(-c4ccccc4)cccc32)ccc1CNCCO | 24.4 | – |
